Laboratory results published in US20150164833A1, “NUTRITIONAL COMPOSITION CONTAINING A NEUROLOGIC COMPONENT OF URSOLIC ACID AND USES THEREOF” (MEAD JOHNSON NUTRITION COMPANY, priority 2013, published 2015).

Tested on: human adipose-derived stem cells (hADSCs)
Test: Neurogenesis (neuronal differentiation) of hADSCs in serum-free neuronal differentiation medium, phase contrast microscopy
Assay type: cell-based
Procedure: This example describes the neurogenesis of hADSCs by ursolic acid as compared to DHA (positive control) and hADSCs cultured in the absence of either ursolic acid and DHA (negative control). Ursolic acid was purchased from Sigma-Aldrich (Cat. No. U6753) and diluted in 95% ethanol to a concentration of […], giving a clear faint yellow stick solution that was then stored at −20° C.
hADSCs were purchased from Invitrogen®, also known as Life Technologies, of Carlsbad, Calif., U.S.A., and were cultured as near confluent monolayers in 100 mm culture plates within a maintenance medium consisting of Complete MesenPro RS™ medium with growth supplement and L-glutamine, also obtained from Invitrogen®. The process of culturing, passage, and seeding the hADSCs is described below. The cells were then subjected to removal and reseeded at a density of 0.5-1×10^4 cells/mL onto a 24-well culture plate with poly-L-ornithine and bovine plasma fibronectin coating. The culture medium is the same as the aforementioned maintenance medium. Three days after seeding, the culture medium was changed to a neuronal differentiation medium.
The subculture of hADSCs was performed when cell culture reached confluence. […]

Structure (SMILES): C[C@H]1[C@H](C)CC[C@]2(C(=O)O)CC[C@]3(C)C(=CC[C@@H]4[C@@]5(C)CC[C@H](O)C(C)(C)[C@@H]5CC[C@]43C)[C@H]12 [ursolic acid, 3-beta-3-hydroxy-urs-12-ene-28-oic-acid]
- neurogenesis of hADSCs (cells undergoing neurogenesis) (30-120 μg/mL ursolic acid, phase contrast microscopy at 24, 48 and 96 hours): A large percentage of cells underwent neurogenesis
- neuronal morphology of hADSCs (ursolic acid at 60 μg/mL, phase contrast microscopy, FIG. 1C): neuronal morphological changes and neurite outgrowth
